Laboratory results: patent US12239645B2, “Targeted dosing for the treatment of complement mediated disorders” (Achillion Pharmaceuticals, Inc., priority 2018, dated 2025)

How the values were obtained:
[1] = test system: Bb fragment of complement Factor B; experiment: SAD study: Bb plasma concentrations; assay type: in vivo, human; details: for mean Bb plasma concentration: eight hours post-dosing
Protocol: […] were dosed and evaluated in 4 dose groups with ten subjects receiving placebo (Table 1). The first dose group had 6 active and 6 placebo subjects; subsequent groups had 6 active and 2 placebo subjects each. Each group was followed for 28 days after dosing. All subjects were monitored for safety through the last scheduled visit at Day 28. Blood and urine samples were collected at predefined time points from Days 1 to 4 to determine plasma and urine concentrations of Compound 1 and from Days 1 to 7 to determine complement related activities. Results of serum AP activity measured by AP Wieslab assay as well as plasma Bb, factor D level and several other PD biomarkers were determined.
A graphical display of mean plasma Bb concentrations through Day 7 (reported in days) and within 24 hours of dosing (by randomized treatment group and overall) can be found in FIG. 9B and FIG. 9A, respectively. All Compound 1 dose groups evaluated had significant reductions in Bb plasma concentrations after single dose administration relative to baseline and the placebo-treated group as illustrated in FIG. 9A and FIG. 9B. Although the number of subjects evaluated in individual dose groups was relatively small (n=6), the magnitude of changes observed appeared to be dose-dependent. At baseline, the 40 mg, 80 mg, and 120 mg dose groups had Bb plasma concentrations within the normal reference range for the assay (i.e., 0.49 to 1.42 μg/mL); 40 mg, 80 mg, and 120 mg dose groups had mean (±SD) baseline values of 0.80 (±0.195) μg/mL, 0.78 (±0.128) μg/mL, and 0.70 (±0.095) μg/mL, respectively. Bb plasma concentrations reached a nadir 6 hours (in the 40 mg dose group) to 8 hours (in the 80 mg and 120 mg dose groups) post-dosing. Six hours post-dosing, mean (±SD) Bb plasma concentration in the 40 mg dose group had decreased to 0.51 (±0.091) μg/mL. Eight hours post-dosing, mean Bb plasma concentration had decreased to 0.48 (±0.056) μg/mL for the 80 mg dose group and 0.40 (±0.029) μg/mL for the 120 mg dose group. For the 80 mg and 120 mg dose groups, mean Bb plasma concentrations increased to above the LLN for the assay by 10 hours post-dosing (for the 80 mg dose group) and 24 hours (Day 2) (for the 120 mg dose group) post-dosing, respectively, with return to baseline values by 48 hours (Day 3) post-dosing. No subjects had treatment-emergent abnormalities in Bb plasma concentrations during the study.

[2] = test system: complement alternative pathway (AP) activity; experiment: Steady-state / PK-PD modeling of AP inhibition versus plasma concentration; set-up: species or system human
Protocol: Based on the ex vivo AP inhibition assay, a steady state model was prepared comparing the % inhibition of Ap based on drug plasma concentration. […] Therefore, Compound 1 is shown to be potent while still having improved safety margins that may allow for better dosing flexibility.

EC90 (plasma concentration providing about 90% AP activity inhibition) ([2]; modeling): 0.067 to 0.088 µg/mL
IC90 of AP activity (Ctrough for 90% inhibition) ([2]; steady-state modeling from SAD ex vivo AP inhibition, FIG. 10): about 67 ng/mL
SMILES: CC(=O)c1nn(CC(=O)N2[C@H](C(=O)Nc3nc(Br)ccc3C)C[C@@]3(C)C[C@@H]23)c2ccc(-c3cnc(C)nc3)cc12 [Compound 1, (1R,3S,5R)-2-(2-(3-acetyl-5-(2-methylpyrimidin-5-yl)-1H-indazol-1-yl)acetyl)-N-(6-bromo-3-methylpyridin-2-yl)-5-methyl-2-azabicyclo[3.1.0]hexane-3-carboxamide]
time of Bb plasma concentration nadir post-dosing ([1]; 40 mg dose group): 6 h
mean (±SD) Bb plasma concentration ([1]; 40 mg single dose, six hours post-dosing): 0.51 (±0.091) μg/mL
time of Bb plasma concentration nadir post-dosing ([1]; 80 mg and 120 mg dose groups): 8 h
time for mean Bb plasma concentration to increase above the LLN ([1]; 80 mg dose group): ≤ 10 h
mean Bb plasma concentration ([1]; 80 mg single dose): 0.48 (±0.056) μg/mL
time for mean Bb plasma concentration to increase above the LLN ([1]; 120 mg dose group): ≤ 24 h
mean Bb plasma concentration ([1]; 120 mg single dose): 0.40 (±0.029) μg/mL
time of Bb return to baseline values post-dosing ([1]; SAD dose groups): ≤ 48 h
inhibition of AP activity ([2]; at Ctrough of 65 ng/mL to 95 ng/mL): greater than 85%
AP inhibition ([2]; at Ctrough of about 88 ng/mL): > 90%
AP inhibition ([2]; at Ctrough of about 67-88 ng/mL): greater than 90%
